Experimental data: PubChem BioAssay (NCI)
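48-hour exposure; five concentrations; linearly interpolated endpoints. TGI denotes the concentration required for complete inhibition of growth.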

system: RPMI-8226 leukemia; test: inhibition of tumour cell growth, NCI panel, 48 h

Row | SMILES | TGI
1 | COn1cc(C=O)c2ccccc21 | > 100 µM
2 | C#CCn1ncc2c(SCc3ccccc3)ncnc21 | > 100 µM
3 | CC1=C(C(N)=O)C(c2ccncc2)C(C#N)=C2SCC(=O)N12 (stereo not drawn) | > 100 µM
4 | CCN(CC)c1ccc2cc(-c3nnc(-c4ccccc4)o3)c(=O)oc2c1 | > 100 µM
5 | O=C(CC(c1ccccc1)N1CCCCC1)c1ccccc1 (stereo not drawn) | 5.23 µM
6 | O=C(O)c1nc(-c2ccccn2)c(-c2ccccn2)nc1C(=O)O | > 100 µM
7 | Cc1cccc2c1[C@]13OC(C)[C@]4(C)CC5OC(=O)[C@@]1(C)[C@@H]5[C@]34C(=O)O2 (stereo partly drawn) | > 100 µM

system: M14 melanoma; test: inhibition of tumour cell growth, NCI panel, 48 h

Row | SMILES | TGI
8 | O=C(NCCCNC(=O)c1ccc2c(O)c(O)ccc2c1)c1ccc2c(O)c(O)ccc2c1 | 78.8 µM
9 | COc1cc(/C=C2\C[C@H]3[C@@H]4CC=C5C[C@@H](O)CC[C@]5(C)[C@H]4CC[C@]3(C)C2=O)cc(OC)c1OC | 81.8 µM
10 | CC1=C(Br)C(Br)=C(C)S1=O | 33.8 µM
11 | O=C1NC(=O)C(c2c[nH]c3cc(Br)ccc23)=C1c1cn(C(c2ccccc2)(c2ccccc2)c2ccccc2)cn1 | 29.9 µM
12 | Cc1cc(C)cc(C(=N)c2ccccc2Cc2cccc3ccccc23)c1 | 40.1 µM
13 | CSC1=C(SC)SC(=C2SC3=C(SC(=C4SCCS4)S3)S2)S1 | > 100 µM
14 | COn1cc(C=O)c2ccccc21 | > 100 µM
15 | C#CCn1ncc2c(SCc3ccccc3)ncnc21 | > 100 µM
16 | CC1=C(C(N)=O)C(c2ccncc2)C(C#N)=C2SCC(=O)N12 (stereo not drawn) | > 100 µM
17 | CCN(CC)c1ccc2cc(-c3nnc(-c4ccccc4)o3)c(=O)oc2c1 | > 100 µM
18 | O=C(CC(c1ccccc1)N1CCCCC1)c1ccccc1 (stereo not drawn) | 42.3 µM
19 | O=C(O)c1nc(-c2ccccn2)c(-c2ccccn2)nc1C(=O)O | 3.59 µM
20 | Cc1cccc2c1[C@]13OC(C)[C@]4(C)CC5OC(=O)[C@@]1(C)[C@@H]5[C@]34C(=O)O2 (stereo partly drawn) | > 100 µM

system: NCI-H23 lung; test: inhibition of tumour cell growth, NCI panel, 48 h

Row | SMILES | TGI
21 | O=C(NCCCNC(=O)c1ccc2c(O)c(O)ccc2c1)c1ccc2c(O)c(O)ccc2c1 | 52.8 µM
22 | COc1cc(/C=C2\C[C@H]3[C@@H]4CC=C5C[C@@H](O)CC[C@]5(C)[C@H]4CC[C@]3(C)C2=O)cc(OC)c1OC | > 100 µM
23 | CC1=C(Br)C(Br)=C(C)S1=O | > 100 µM
24 | O=C1NC(=O)C(c2c[nH]c3cc(Br)ccc23)=C1c1cn(C(c2ccccc2)(c2ccccc2)c2ccccc2)cn1 | 25.3 µM
25 | Cc1cc(C)cc(C(=N)c2ccccc2Cc2cccc3ccccc23)c1 | 34.1 µM
26 | CSC1=C(SC)SC(=C2SC3=C(SC(=C4SCCS4)S3)S2)S1 | > 100 µM
27 | COn1cc(C=O)c2ccccc21 | > 100 µM
28 | C#CCn1ncc2c(SCc3ccccc3)ncnc21 | > 100 µM
29 | CC1=C(C(N)=O)C(c2ccncc2)C(C#N)=C2SCC(=O)N12 (stereo not drawn) | > 100 µM
30 | CCN(CC)c1ccc2cc(-c3nnc(-c4ccccc4)o3)c(=O)oc2c1 | > 100 µM
31 | O=C(CC(c1ccccc1)N1CCCCC1)c1ccccc1 (stereo not drawn) | 31.6 µM
32 | O=C(O)c1nc(-c2ccccn2)c(-c2ccccn2)nc1C(=O)O | 23.6 µM
33 | Cc1cccc2c1[C@]13OC(C)[C@]4(C)CC5OC(=O)[C@@]1(C)[C@@H]5[C@]34C(=O)O2 (stereo partly drawn) | > 100 µM

system: SF-268 CNS; test: inhibition of tumour cell growth, NCI panel, 48 h

Row | SMILES | TGI
34 | O=C(NCCCNC(=O)c1ccc2c(O)c(O)ccc2c1)c1ccc2c(O)c(O)ccc2c1 | 58.1 µM
35 | COc1cc(/C=C2\C[C@H]3[C@@H]4CC=C5C[C@@H](O)CC[C@]5(C)[C@H]4CC[C@]3(C)C2=O)cc(OC)c1OC | > 100 µM
36 | CC1=C(Br)C(Br)=C(C)S1=O | > 100 µM
37 | O=C1NC(=O)C(c2c[nH]c3cc(Br)ccc23)=C1c1cn(C(c2ccccc2)(c2ccccc2)c2ccccc2)cn1 | 33.1 µM
38 | Cc1cc(C)cc(C(=N)c2ccccc2Cc2cccc3ccccc23)c1 | 34.9 µM
39 | CSC1=C(SC)SC(=C2SC3=C(SC(=C4SCCS4)S3)S2)S1 | > 100 µM
40 | COn1cc(C=O)c2ccccc21 | > 100 µM
41 | C#CCn1ncc2c(SCc3ccccc3)ncnc21 | > 100 µM
42 | CC1=C(C(N)=O)C(c2ccncc2)C(C#N)=C2SCC(=O)N12 (stereo not drawn) | > 100 µM
43 | CCN(CC)c1ccc2cc(-c3nnc(-c4ccccc4)o3)c(=O)oc2c1 | > 100 µM
44 | O=C(CC(c1ccccc1)N1CCCCC1)c1ccccc1 (stereo not drawn) | 33.4 µM
45 | O=C(O)c1nc(-c2ccccn2)c(-c2ccccn2)nc1C(=O)O | 24.1 µM
46 | Cc1cccc2c1[C@]13OC(C)[C@]4(C)CC5OC(=O)[C@@]1(C)[C@@H]5[C@]34C(=O)O2 (stereo partly drawn) | > 100 µM

system: EKVX NSCLC; test: inhibition of tumour cell growth, NCI panel, 48 h

Row | SMILES | TGI
47 | O=C(NCCCNC(=O)c1ccc2c(O)c(O)ccc2c1)c1ccc2c(O)c(O)ccc2c1 | > 79.9 µM
48 | COc1cc(/C=C2\C[C@H]3[C@@H]4CC=C5C[C@@H](O)CC[C@]5(C)[C@H]4CC[C@]3(C)C2=O)cc(OC)c1OC | > 100 µM
49 | CC1=C(Br)C(Br)=C(C)S1=O | 36.9 µM
50 | O=C1NC(=O)C(c2c[nH]c3cc(Br)ccc23)=C1c1cn(C(c2ccccc2)(c2ccccc2)c2ccccc2)cn1 | 29.1 µM
51 | Cc1cc(C)cc(C(=N)c2ccccc2Cc2cccc3ccccc23)c1 | 46.4 µM
52 | CSC1=C(SC)SC(=C2SC3=C(SC(=C4SCCS4)S3)S2)S1 | > 100 µM
53 | COn1cc(C=O)c2ccccc21 | > 100 µM
54 | C#CCn1ncc2c(SCc3ccccc3)ncnc21 | > 100 µM
55 | CC1=C(C(N)=O)C(c2ccncc2)C(C#N)=C2SCC(=O)N12 (stereo not drawn) | > 100 µM
56 | CCN(CC)c1ccc2cc(-c3nnc(-c4ccccc4)o3)c(=O)oc2c1 | > 100 µM
57 | O=C(CC(c1ccccc1)N1CCCCC1)c1ccccc1 (stereo not drawn) | 34.5 µM
58 | O=C(O)c1nc(-c2ccccn2)c(-c2ccccn2)nc1C(=O)O | 13.6 µM
59 | Cc1cccc2c1[C@]13OC(C)[C@]4(C)CC5OC(=O)[C@@]1(C)[C@@H]5[C@]34C(=O)O2 (stereo partly drawn) | > 100 µM

system: NCI-H226 lung; test: inhibition of tumour cell growth, NCI panel, 48 h

Row | SMILES | TGI
60 | O=C(NCCCNC(=O)c1ccc2c(O)c(O)ccc2c1)c1ccc2c(O)c(O)ccc2c1 | > 100 µM
61 | COc1cc(/C=C2\C[C@H]3[C@@H]4CC=C5C[C@@H](O)CC[C@]5(C)[C@H]4CC[C@]3(C)C2=O)cc(OC)c1OC | > 100 µM
62 | CC1=C(Br)C(Br)=C(C)S1=O | 50.2 µM
63 | O=C1NC(=O)C(c2c[nH]c3cc(Br)ccc23)=C1c1cn(C(c2ccccc2)(c2ccccc2)c2ccccc2)cn1 | 19.3 µM
64 | Cc1cc(C)cc(C(=N)c2ccccc2Cc2cccc3ccccc23)c1 | 29.3 µM
65 | CSC1=C(SC)SC(=C2SC3=C(SC(=C4SCCS4)S3)S2)S1 | > 100 µM
66 | COn1cc(C=O)c2ccccc21 | > 84.9 µM
67 | C#CCn1ncc2c(SCc3ccccc3)ncnc21 | > 100 µM
68 | CC1=C(C(N)=O)C(c2ccncc2)C(C#N)=C2SCC(=O)N12 (stereo not drawn) | > 100 µM
69 | CCN(CC)c1ccc2cc(-c3nnc(-c4ccccc4)o3)c(=O)oc2c1 | > 70.7 µM
70 | O=C(CC(c1ccccc1)N1CCCCC1)c1ccccc1 (stereo not drawn) | 37.4 µM
71 | O=C(O)c1nc(-c2ccccn2)c(-c2ccccn2)nc1C(=O)O | 4.7 µM
72 | Cc1cccc2c1[C@]13OC(C)[C@]4(C)CC5OC(=O)[C@@]1(C)[C@@H]5[C@]34C(=O)O2 (stereo partly drawn) | > 100 µM

system: CAKI-1 renal; test: inhibition of tumour cell growth, NCI panel, 48 h

Row | SMILES | TGI
73 | O=C(NCCCNC(=O)c1ccc2c(O)c(O)ccc2c1)c1ccc2c(O)c(O)ccc2c1 | > 100 µM
74 | COc1cc(/C=C2\C[C@H]3[C@@H]4CC=C5C[C@@H](O)CC[C@]5(C)[C@H]4CC[C@]3(C)C2=O)cc(OC)c1OC | > 100 µM
75 | CC1=C(Br)C(Br)=C(C)S1=O | 49.9 µM
76 | O=C1NC(=O)C(c2c[nH]c3cc(Br)ccc23)=C1c1cn(C(c2ccccc2)(c2ccccc2)c2ccccc2)cn1 | 97.4 µM
77 | Cc1cc(C)cc(C(=N)c2ccccc2Cc2cccc3ccccc23)c1 | 72.9 µM
78 | CSC1=C(SC)SC(=C2SC3=C(SC(=C4SCCS4)S3)S2)S1 | > 100 µM
79 | COn1cc(C=O)c2ccccc21 | > 100 µM
80 | C#CCn1ncc2c(SCc3ccccc3)ncnc21 | > 100 µM
81 | CC1=C(C(N)=O)C(c2ccncc2)C(C#N)=C2SCC(=O)N12 (stereo not drawn) | > 100 µM
82 | CCN(CC)c1ccc2cc(-c3nnc(-c4ccccc4)o3)c(=O)oc2c1 | > 100 µM
83 | O=C(CC(c1ccccc1)N1CCCCC1)c1ccccc1 (stereo not drawn) | 30.3 µM
84 | O=C(O)c1nc(-c2ccccn2)c(-c2ccccn2)nc1C(=O)O | 8.5 µM
85 | Cc1cccc2c1[C@]13OC(C)[C@]4(C)CC5OC(=O)[C@@]1(C)[C@@H]5[C@]34C(=O)O2 (stereo partly drawn) | > 100 µM

system: MDA-MB-231 breast; test: inhibition of tumour cell growth, NCI panel, 48 h

Row | SMILES | TGI
86 | O=C(NCCCNC(=O)c1ccc2c(O)c(O)ccc2c1)c1ccc2c(O)c(O)ccc2c1 | > 73.4 µM
87 | COc1cc(/C=C2\C[C@H]3[C@@H]4CC=C5C[C@@H](O)CC[C@]5(C)[C@H]4CC[C@]3(C)C2=O)cc(OC)c1OC | 81.1 µM
88 | CC1=C(Br)C(Br)=C(C)S1=O | 61.5 µM
89 | O=C1NC(=O)C(c2c[nH]c3cc(Br)ccc23)=C1c1cn(C(c2ccccc2)(c2ccccc2)c2ccccc2)cn1 | 21.4 µM
90 | Cc1cc(C)cc(C(=N)c2ccccc2Cc2cccc3ccccc23)c1 | > 100 µM
91 | CSC1=C(SC)SC(=C2SC3=C(SC(=C4SCCS4)S3)S2)S1 | > 100 µM
92 | COn1cc(C=O)c2ccccc21 | > 100 µM
93 | C#CCn1ncc2c(SCc3ccccc3)ncnc21 | > 100 µM
94 | CC1=C(C(N)=O)C(c2ccncc2)C(C#N)=C2SCC(=O)N12 (stereo not drawn) | > 100 µM
95 | CCN(CC)c1ccc2cc(-c3nnc(-c4ccccc4)o3)c(=O)oc2c1 | > 77.9 µM
96 | O=C(CC(c1ccccc1)N1CCCCC1)c1ccccc1 (stereo not drawn) | 34.6 µM
97 | O=C(O)c1nc(-c2ccccn2)c(-c2ccccn2)nc1C(=O)O | 30.5 µM
98 | Cc1cccc2c1[C@]13OC(C)[C@]4(C)CC5OC(=O)[C@@]1(C)[C@@H]5[C@]34C(=O)O2 (stereo partly drawn) | > 100 µM
